Experimental data taken from patent publication US12357607B2, “Compositions and methods for intravenous administration of 2-bromo-1-(3,3-dinitroazetidin-1-yl)ethanone” (EpicentRx, Inc., priority 2016, dated 2025).

Test: Phase 1 dose-escalation study: intravenous aqueous solution of ABDNAZ; safety, tolerability, adverse events
Type: in vivo, human
Method: An aqueous solution of ABDNAZ was intravenously administered to twenty-five human patients as part of a Phase I clinical study. The aqueous solution contained ABDNAZ (2 mg/mL), polyethylene glycol having a number average molecular weight of 400 g/mol (6% w/w), dimethylacetamide (3% w/w), and water for injection. Patients were administered a volume of the aqueous solution of ABDNAZ sufficient to deliver a dose of ABDNAZ in the amount of 10 mg/m^2, 16.7 mg/m^2, 24.6 mg/m^2, 33 mg/m^2, 55 mg/m^2, or 83 mg/m^2. Pain at the injection site due to administration of the aqueous solution of ABDNAZ was experienced by 84% of patients. […] Thereafter, peripheral intravenous delivery in the antecubital or forearm area was used and a longer duration of time was used to perform the infusion (e.g., ranging from 2 hours to 8 hours, while administering at a rate of 3.5 mL/hour that could be adjusted up or down in 0.5 mL/hour increments based on patients' ability to tolerate the infusion).
In this open-label, human, dose-escalation phase 1 study, a 3+3 dose-escalation design was used to assess safety, tolerability, and pharmacokinetics of ABDNAZ. Patients were enrolled from the University of California-San Diego Moores Cancer Center, La Jolla, CA, USA, and the Sarah Cannon Research Institute, Nashville, TN, USA. […] Previous antineoplastic therapies had to have been discontinued at least 6 weeks before intervention start, and patients could show no residual side-effects of previous therapies. Patients were required to practice effective contraception while receiving ABDNAZ. All patients had evaluable disease. Key exclusion criteria included hypoalbuminaemia (albumin <30 g/L), active brain metastases (although patients with stable brain metastases were eligible), pregnancy or breast feeding, any other clinically significant illness or psychiatric disorder that could affect compliance or endpoint assessments, and concurrent use of any other investigational drugs.
Screening assessments were done at the clinical site less than 16 days before treatment initiation and included an electrocardiogram, urinalysis, Modified Borg Dyspnea Assessment, pulse oximetry, and radiographic tumour measurement. A medical history, physical examination, pregnancy test, performance status, complete blood count, a comprehensive serum chemistry, and urinalysis were done within 16 days of the first dosing.
The protocol was reviewed and approved by the investigational review boards at the Moores Cancer Center and the Sarah Cannon Research Institute. All procedures were performed in accordance with the principles established by the Helsinki Declaration. Patients gave written informed consent for all clinical and research aspects of the study before enrolment, which was done according to national and institutional guidelines.
An aqueous solution of ABDNAZ was intravenously administered to patients. The aqueous solution contained ABDNAZ (2 mg/mL), polyethylene glycol having a number average molecular weight of 400 g/mol (6% w/w), dimethylacetamide (3% w/w), and water for injection. Patients were administered a volume of the aqueous solution of ABDNAZ sufficient to deliver a dose of ABDNAZ in the amount of 10 mg/m^2, 16.7 mg/m^2, 24.6 mg/m^2, 33 mg/m^2, 55 mg/m^2, or 83 mg/m^2. Three patients were given a starting dose of 10 mg/m^2 of ABDNAZ before dose escalation (to 16.7 mg/m^2, 24.6 mg/m^2, 33 mg/m^2, 55 mg/m and 83 mg/m^2), with at least three patients per dose cohort, allowing a 2-week observation period before dose escalation. […] Thereafter, peripheral intravenous delivery in the antecubital or forearm area was used and a longer duration of time was used to perform the infusion (e.g., ranging from 2 hours to 8 hours, while administering at a rate of 3.5 mL/hour that could be adjusted up or down in 0.5 mL/hour increments based on patients' ability to tolerate the infusion). […]

[1] = 10 mg/m^2 dose (n = 6), number of patients
[2] = 16.7 mg/m^2 dose (n = 3), number of patients
[3] = 24.6 mg/m^2 dose (n = 3), number of patients
[4] = 33 mg/m^2 dose (n = 4), number of patients
[5] = 55 mg/m^2 dose (n = 3), number of patients
[6] = 83 mg/m^2 dose (n = 6), number of patients
[7] = twenty-five patients, all dose cohorts
[8] = twenty-five patients, all dose cohorts 10-83 mg/m^2

## O=C(CBr)N1CC([N+](=O)[O-])([N+](=O)[O-])C1 [ABDNAZ, 2-bromo-1-(3,3-dinitroazetidin-1-yl)ethanone]
10 mg/m^2 dose (n = 6)
  Dyspnoea or wheezing, Grade 1-2, share of patients: (17%)
  Infusion-site pain, Grade 1-2, share of patients: (67%)
[1]
  Arm swelling or oedema, Grade 1-2: 0
  Arm swelling or oedema, Grade 3: 0
  Dyspnoea or wheezing, Grade 1-2: 1
  Dyspnoea or wheezing, Grade 3: 0
  Infusion-site pain, Grade 1-2: 4
  Infusion-site pain, Grade 3: 0
  Mouth tingling or burning, Grade 1-2: 0
  Mouth tingling or burning, Grade 3: 0
  Vein hardening, Grade 1-2: 0
  Vein hardening, Grade 3: 0
16.7 mg/m^2 dose (n = 3)
  Arm swelling or oedema, Grade 1-2, share of patients: (33%)
  Infusion-site pain, Grade 1-2, share of patients: (100%)
[2]
  Arm swelling or oedema, Grade 1-2: 1
  Arm swelling or oedema, Grade 3: 0
  Dyspnoea or wheezing, Grade 1-2: 0
  Dyspnoea or wheezing, Grade 3: 0
  Infusion-site pain, Grade 1-2: 3
  Infusion-site pain, Grade 3: 0
  Mouth tingling or burning, Grade 1-2: 0
  Mouth tingling or burning, Grade 3: 0
  Vein hardening, Grade 1-2: 0
  Vein hardening, Grade 3: 0
24.6 mg/m^2 dose (n = 3)
  Infusion-site pain, Grade 1-2, share of patients: (33%)
[3]
  Arm swelling or oedema, Grade 1-2: 0
  Arm swelling or oedema, Grade 3: 0
  Dyspnoea or wheezing, Grade 1-2: 0
  Dyspnoea or wheezing, Grade 3: 0
  Infusion-site pain, Grade 1-2: 1
  Infusion-site pain, Grade 3: 0
  Mouth tingling or burning, Grade 1-2: 0
  Mouth tingling or burning, Grade 3: 0
  Vein hardening, Grade 1-2: 0
  Vein hardening, Grade 3: 0
33 mg/m^2 dose (n = 4)
  Arm swelling or oedema, Grade 2, share of patients: (25%)
  Infusion-site pain, Grade 2, share of patients: (75%)
  Infusion-site pain, Grade 3, share of patients: (25%)
  Vein hardening, Grade 2, share of patients: (25%)
[4]
  Arm swelling or oedema, Grade 2: 1
  Arm swelling or oedema, Grade 3: 0
  Dyspnoea or wheezing, Grade 2: 0
  Dyspnoea or wheezing, Grade 3: 0
  Infusion-site pain, Grade 2: 3
  Infusion-site pain, Grade 3: 1
  Mouth tingling or burning, Grade 2: 0
  Mouth tingling or burning, Grade 3: 0
  Vein hardening, Grade 2: 1
  Vein hardening, Grade 3: 0
55 mg/m^2 dose (n = 3)
  Arm swelling or oedema, Grade 1-2, share of patients: (67%)
  Dyspnoea or wheezing, Grade 1-2, share of patients: (33%)
  Infusion-site pain, Grade 1-2, share of patients: (100%)
  Mouth tingling or burning, Grade 1-2, share of patients: (67%)
  Vein hardening, Grade 1-2, share of patients: (33%)
[5]
  Arm swelling or oedema, Grade 1-2: 2
  Arm swelling or oedema, Grade 3: 0
  Dyspnoea or wheezing, Grade 1-2: 1
  Dyspnoea or wheezing, Grade 3: 0
  Infusion-site pain, Grade 1-2: 3
  Infusion-site pain, Grade 3: 0
  Mouth tingling or burning, Grade 1-2: 2
  Mouth tingling or burning, Grade 3: 0
  Vein hardening, Grade 1-2: 1
  Vein hardening, Grade 3: 0
83 mg/m^2 dose (n = 6)
  Arm swelling or oedema, Grade 1-2, share of patients: (67%)
  Dyspnoea or wheezing, Grade 1-2, share of patients: (50%)
  Infusion-site pain, Grade 1-2, share of patients: (100%)
  Mouth tingling or burning, Grade 1-2, share of patients: (33%)
  Vein hardening, Grade 1-2, share of patients: (83%)
[6]
  Arm swelling or oedema, Grade 1-2: 4
  Arm swelling or oedema, Grade 3: 0
  Dyspnoea or wheezing, Grade 1-2: 3
  Dyspnoea or wheezing, Grade 3: 0
  Infusion-site pain, Grade 1-2: 6
  Infusion-site pain, Grade 3: 0
  Mouth tingling or burning, Grade 1-2: 2
  Mouth tingling or burning, Grade 3: 0
  Vein hardening, Grade 1-2: 5
  Vein hardening, Grade 3: 0
All dose cohorts 10-83 mg/m^2
  Pain at the injection site, grade: mostly grade 1 and grade 2
Highest dose cohort (83 mg/m^2)
  Patients needing dose reduction to 33 mg/m^2 because of localized infusion pain: Three
Limited by time constraints related to management of infusion pain
  Maximally feasible dose: 83 mg/m^2
Penultimate dose cohort (55 mg/m^2)
  Patients needing dose reduction to 33 mg/m^2 because of localized infusion pain: one
[7]
  Arm swelling or oedema, number of patients: eight
  Arm swelling or oedema, share of patients: 32%
  Vein hardening, number of patients: seven
  Vein hardening, share of patients: 28%
[8]
  Pain at the injection site, number of patients: 21 patients
  Pain at the injection site, share of patients: 84%
